From ChEMBL document CHEMBL6109175, “Ubiquitin-Specific Protease 7 (USP7) as a Promising Therapeutic Target for Drug Discovery: From Mechanisms to Therapies” (J Med Chem, 2025)
pIC50, pKd: −log10 of the molar value.

Experiments:
[1] = biological target: T1, Ubiquitin carboxyl-terminal hydrolase 7 (Homo sapiens, UniProt Q93009); assay: Inhibition of N-terminal His-tagged USP7 catalytic domain (208 to 554 residues) (unknown origin) by TR-FRET assay
[2] = biological target: T1, Ubiquitin carboxyl-terminal hydrolase 7; assay: Inhibition of USP7 catalytic domain human USP7 (208 to 560 residues) (unknown origin) extracted from Escherichia coli
[3] = biological target: T1, Ubiquitin carboxyl-terminal hydrolase 7; assay: Binding affinity to USP7 catalytic domain human USP7 (208 to 560 residues) (unknown origin) extracted from Escherichia coli assessed as dissociation constant
[4] = biological target: T1, Ubiquitin carboxyl-terminal hydrolase 7; assay: Inhibition of full length USP7 (unknown origin)

T1 sequence (Q93009 whole entry, the tested form may be a part): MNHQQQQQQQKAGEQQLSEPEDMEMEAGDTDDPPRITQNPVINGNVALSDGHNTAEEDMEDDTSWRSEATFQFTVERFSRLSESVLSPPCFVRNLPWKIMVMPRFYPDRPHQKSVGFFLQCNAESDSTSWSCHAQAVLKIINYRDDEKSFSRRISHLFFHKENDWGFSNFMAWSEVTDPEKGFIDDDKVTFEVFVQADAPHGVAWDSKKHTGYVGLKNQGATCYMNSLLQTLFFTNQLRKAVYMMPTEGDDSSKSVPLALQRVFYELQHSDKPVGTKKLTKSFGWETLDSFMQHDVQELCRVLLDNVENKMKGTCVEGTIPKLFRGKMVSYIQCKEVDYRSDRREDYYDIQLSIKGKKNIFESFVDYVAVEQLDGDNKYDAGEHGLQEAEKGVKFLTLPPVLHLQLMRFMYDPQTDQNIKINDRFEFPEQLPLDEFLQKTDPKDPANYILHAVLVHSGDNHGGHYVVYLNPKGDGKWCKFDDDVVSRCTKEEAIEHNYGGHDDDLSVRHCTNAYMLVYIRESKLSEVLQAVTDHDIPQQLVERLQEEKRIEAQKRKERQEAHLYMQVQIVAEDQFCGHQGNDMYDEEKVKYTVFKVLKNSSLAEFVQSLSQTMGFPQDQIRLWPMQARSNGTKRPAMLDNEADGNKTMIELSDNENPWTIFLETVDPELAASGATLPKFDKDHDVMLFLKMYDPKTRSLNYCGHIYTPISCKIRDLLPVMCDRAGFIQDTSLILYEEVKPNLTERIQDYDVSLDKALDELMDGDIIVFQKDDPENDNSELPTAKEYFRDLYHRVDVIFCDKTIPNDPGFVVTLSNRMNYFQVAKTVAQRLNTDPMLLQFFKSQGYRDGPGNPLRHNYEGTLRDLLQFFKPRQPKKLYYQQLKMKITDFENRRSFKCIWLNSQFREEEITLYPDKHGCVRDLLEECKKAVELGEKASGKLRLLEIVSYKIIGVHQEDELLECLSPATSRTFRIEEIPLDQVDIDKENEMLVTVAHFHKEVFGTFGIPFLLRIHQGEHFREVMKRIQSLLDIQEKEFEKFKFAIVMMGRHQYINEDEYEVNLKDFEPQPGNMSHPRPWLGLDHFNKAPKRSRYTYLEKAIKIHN

`CCc1c(-c2ccc(C(=O)NC)nc2)cnc(N)c1-c1ccc(O)cc1` gave a pIC50 [1] of 6.21.
Work on `O=C(C[C@@H](C(F)F)n1ccc(F)n1)N1CCC(O)(Cn2cnc3c(cnn3-c3ccc(F)cc3)c2=O)CC1` yielded a pIC50 [2] of 4.28 and a pKd [3] of 7.19.
For `O=C(CCc1ccccc1)N1CCC(O)(Cn2cnc3cc(Cl)ccc3c2=O)CC1`, the pIC50 [4] was 4.99.
